Source: patent publication US20210300943A1, “OGA INHIBITOR COMPOUNDS” (Janssen Pharmaceutica NV, priority 2018, published 2021)

Target: T1, OGA (Homo sapiens, UniProt O60502)
T1 construct: endogenous in cells; host or cells: HEK293 cells inducible for P301L mutant human Tau (2N4R)
T1 sequence (O60502 1-916): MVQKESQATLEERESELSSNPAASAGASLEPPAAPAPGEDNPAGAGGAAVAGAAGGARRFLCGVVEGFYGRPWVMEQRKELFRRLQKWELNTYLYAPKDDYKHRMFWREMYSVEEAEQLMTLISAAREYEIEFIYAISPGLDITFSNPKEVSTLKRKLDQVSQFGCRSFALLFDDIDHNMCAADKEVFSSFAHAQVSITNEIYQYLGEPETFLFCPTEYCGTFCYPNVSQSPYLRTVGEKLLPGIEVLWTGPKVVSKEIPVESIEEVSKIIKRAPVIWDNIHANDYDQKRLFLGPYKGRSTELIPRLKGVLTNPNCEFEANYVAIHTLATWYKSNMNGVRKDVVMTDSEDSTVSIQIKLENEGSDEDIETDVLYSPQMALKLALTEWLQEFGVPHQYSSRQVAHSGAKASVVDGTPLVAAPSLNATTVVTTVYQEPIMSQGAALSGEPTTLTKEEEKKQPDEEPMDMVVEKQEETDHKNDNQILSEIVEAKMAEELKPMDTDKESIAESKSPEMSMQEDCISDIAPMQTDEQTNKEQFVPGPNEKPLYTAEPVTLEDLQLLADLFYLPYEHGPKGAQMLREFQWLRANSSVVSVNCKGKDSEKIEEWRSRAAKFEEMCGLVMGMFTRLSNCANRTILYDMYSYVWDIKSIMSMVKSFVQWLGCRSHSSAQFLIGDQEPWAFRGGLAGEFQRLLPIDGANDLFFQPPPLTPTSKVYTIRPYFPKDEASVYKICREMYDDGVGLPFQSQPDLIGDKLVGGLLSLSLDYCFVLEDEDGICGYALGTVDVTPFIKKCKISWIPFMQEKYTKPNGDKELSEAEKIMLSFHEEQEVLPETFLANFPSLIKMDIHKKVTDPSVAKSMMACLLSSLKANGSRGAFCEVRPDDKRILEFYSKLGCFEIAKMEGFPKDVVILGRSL
Experiment: OGA cellular assay (ICC detection of O-GlcNAcylated proteins in HEK293 cells inducible for P301L mutant human Tau)
Format: cell-based
Conditions: for EC50: 6 hours incubation, read-out: Cellular hOGA, pEC50 (converted)
In short: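 HEK293 cells inducible for P301L Tau, in low-glucose assay medium, treated 6 h with compound at 0.2% DMSO. O-GlcNAcylated proteins detected by CTD110.6 immunostaining, imaged at 488 nm with Hoechst nuclear counts for toxicity. IC50 from non-linear regression, 200 uM Thiamet G as maximum.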

[1] = HEK293 cells inducible for P301L mutant human Tau

Row | Emax (HEK293, HEK293 cells inducible for P301L mutant human Tau, maximal effect, Thiamet G 200 uM as maximum) | EC50 [1] | Cellular Emax (%) (HEK293 cells inducible for P301L mutant human Tau, maximal effect, Thiamet G 200 uM as maximum) | Compound
1 | 68% | 0.0251 µM | – | Cc1cc([C@H]2CCCN(C(C)c3cnc4c(c3)OCCN4)C2)cc(C)n1 (single isomer, unassigned) [Product 135]
2 | – | 0.00257 µM | 95% | Cc1cc(OC[C@H]2CCCN(C(C)c3nc4c(cc3F)OCCO4)C2)cc(C)n1 (single isomer, unassigned) [Product 155]
